Experiments:
Assay in all cases: relative viability (nuclei count vs DMSO), 5 days (fraction); higher = more cells survive
[1] = compound: CC1(COc2ccc3c(c2)ncn3-c2ccc3cccc(N4CCC(N)CC4)c3n2)COC1 [Crenolanib] + COc1cccc2cc(-c3nc([C@H]4CC[C@H](C(=O)O)CC4)n4ncnc(N)c34)[nH]c12 [OSI-027] (partner 0.5 µM)
Method in brief: (§1)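 Each reported value is a median over duplicate plates. It expresses relative viability: treated-well nuclei count divided by vehicle-well nuclei count. Lung cancer cell lines in 1536-well plates were dosed by pin tool a day after seeding, alone with one drug or with a fixed anchor-drug dose plus five library-drug doses (not always all listed) in √10 steps, and nuclei were counted after 5 days.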

[2] = compound: O=C1NC(=O)[C@@H](c2cn3c4c(cccc24)CCC3)[C@@H]1c1c[nH]c2ccccc12 [Tivantinib] + CCNC(=O)c1noc(-c2cc(C(C)C)c(O)cc2O)c1-c1ccc(CN2CCOCC2)cc1 [Luminespib] (partner 0.01 µM)
Method in brief: as §1

[3] = compound: O=C1NC(=O)[C@@H](c2cn3c4c(cccc24)CCC3)[C@@H]1c1c[nH]c2ccccc12 [Tivantinib] + CS(=O)(=O)CCNCc1ccc(-c2ccc3ncnc(Nc4ccc(OCc5cccc(F)c5)c(Cl)c4)c3c2)o1 [Lapatinib] (partner 2 µM)
Method in brief: as §1

[4] = compound: O=C1NC(=O)[C@@H](c2cn3c4c(cccc24)CCC3)[C@@H]1c1c[nH]c2ccccc12 [Tivantinib] + NC(=O)Nc1cc(-c2cccc(F)c2)sc1C(=O)N[C@H]1CCCNC1 [AZD7762] (partner 0.2 µM)
Method in brief: as §1

| Cell Line | relative viability ([1]; first compound 0.01 µM) | relative viability ([1]; first compound 0.03162 µM) | relative viability ([1]; first compound 0.1 µM) | relative viability ([1]; first compound 0.3162 µM) | relative viability ([1]; first compound 1 µM) | relative viability ([2]; first compound 0.01 µM) | relative viability ([2]; first compound 0.03162 µM) | relative viability ([2]; first compound 0.1 µM) | relative viability ([2]; first compound 0.3162 µM) | relative viability ([3]; first compound 0.01 µM) | relative viability ([3]; first compound 0.03162 µM) | relative viability ([3]; first compound 0.1 µM) | relative viability ([3]; first compound 0.3162 µM) | relative viability ([4]; first compound 0.01 µM) | relative viability ([4]; first compound 0.03162 µM) | relative viability ([4]; first compound 0.1 µM) | relative viability ([4]; first compound 0.3162 µM) |
| --- | --- | --- | --- | --- | --- | --- | --- | --- | --- | --- | --- | --- | --- | --- | --- | --- | --- |
| 201T | 0.505 | 0.605 | 0.695 | 0.763 | 0.692 | 1.07 | 1.05 | 1.01 | 1.09 | 1.08 | 1.01 | 1.04 | 1.14 | 0.602 | 0.62 | 0.623 | 0.611 |
| A549 |  |  |  |  |  |  |  |  |  | 1 | 1.02 | 0.911 | 0.935 |  |  |  |  |
| A-427 | 0.519 | 0.54 | 0.421 | 0.48 | 0.431 | 0.971 | 0.873 | 0.899 | 0.76 | 1 | 1.12 | 0.989 | 1.12 | 0.792 | 0.829 | 0.749 | 0.651 |
| ABC-1 | 0.526 | 0.536 | 0.522 | 0.531 | 0.45 | 0.43 | 0.944 | 0.339 | 0.675 |  | 1.13 | 1.17 | 0.869 | 0.8 | 0.912 | 0.708 | 0.685 |
| BEN | 0.302 | 0.339 | 0.305 | 0.321 | 0.314 | 0.361 | 0.262 | 0.232 | 0.385 | 0.623 | 0.617 | 0.591 | 0.691 | 0.705 | 0.535 | 0.617 | 0.581 |
| CAL-12T | 0.844 | 0.634 | 0.643 | 0.712 | 0.693 | 0.506 | 0.756 | 0.43 | 0.259 | 0.723 | 0.62 | 0.644 | 0.424 | 0.563 | 0.603 | 0.574 | 0.437 |
| COR-L23 | 0.721 | 0.849 | 0.654 | 0.81 | 0.714 | 0.625 | 0.685 | 0.661 | 0.757 | 1.12 | 0.975 | 0.894 | 0.922 |  |  |  |  |
| COR-L 105 | 0.842 | 0.783 | 0.642 | 1 | 0.691 | 0.708 | 0.835 | 0.873 | 0.742 | 0.412 | 0.359 | 0.29 | 0.359 |  |  |  |  |
| Calu-6 |  |  |  |  |  |  |  |  |  | 1.08 | 1.02 | 1.02 | 0.965 |  |  |  |  |
| ChaGo-K-1 | 0.659 | 0.634 | 0.572 | 0.631 | 0.594 | 0.679 | 0.539 | 0.576 | 0.597 |  |  |  |  | 0.781 | 0.871 | 0.862 | 0.861 |
| EBC-1 |  |  |  |  |  |  |  |  |  | 0.205 | 0.248 | 0.194 | 0.201 |  |  |  |  |
| EKVX | 0.737 | 0.78 | 0.69 | 0.683 | 0.737 | 0.997 | 0.927 | 0.938 |  | 0.194 | 0.225 | 0.225 | 0.176 | 0.59 | 0.704 | 0.619 | 0.28 |
| EMC-BAC-2 | 0.438 | 0.376 | 0.411 | 0.424 | 0.398 | 1.17 | 1.17 | 1.18 | 1.08 | 1 | 0.852 | 0.867 | 0.881 | 1.14 | 1.09 | 1.08 | 1.22 |
| EPLC-272H | 0.315 | 0.288 | 0.249 | 0.296 | 0.329 | 0.374 | 0.23 | 0.431 | 0.19 | 1.08 | 0.711 | 0.846 | 0.383 | 0.278 | 0.284 | 0.21 | 0.268 |
| H3255 | 0.586 | 0.544 | 0.514 | 0.573 | 0.588 | 0.934 | 0.811 | 0.741 |  | 0.275 | 0.234 | 0.294 |  | 0.968 | 0.73 | 0.902 |  |
| HARA | 0.639 | 0.501 | 0.319 | 0.591 | 0.396 | 0.909 | 0.592 | 0.738 | 0.689 | 0.888 | 0.651 | 0.636 | 0.82 | 0.214 | 0.416 | 0.394 | 0.288 |
| HCC-15 | 0.742 | 0.695 | 0.676 | 0.616 | 0.393 | 0.246 | 0.285 | 0.456 | 0.289 | 0.815 | 0.846 | 0.873 | 0.829 | 1.27 | 1.34 | 1.15 | 1.29 |
| HCC-44 | 0.498 | 0.496 | 0.611 | 0.519 | 0.434 | 1.13 | 1 | 0.954 | 0.634 | 1.02 | 1.04 | 0.998 | 1 | 1.04 | 1.05 | 1.08 | 0.985 |
| HCC-78 | 0.433 | 0.32 |  | 0.345 | 0.338 |  |  |  |  | 0.477 | 0.786 | 0.647 | 0.456 | 0.688 | 0.786 | 0.651 | 0.425 |

From the supplement of paper PMC10307832
